The record followed here is PubChem BioAssay (NCI).

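Interpolation was linear, between the two tested concentrations surrounding the appropriate level; five concentrations were tested over 48 hours in 96-well plates. GI50: concentration for 50% inhibition of growth. TGI: total growth inhibition.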

Some test systems named below: 786-0 renal; ACHN renal; HCT-116 colon; HT29 colon; MCF7 breast; OVCAR-4 ovarian; OVCAR-8 ovarian; RPMI-8226 leukemia; RXF 393 renal; HCC-2998 colon.
What all share (assay): inhibition of tumour cell growth, NCI panel, 48 h

Take `COc1cc(-c2c(C#N)c(N)nc(N3CCOCC3)c2C#N)cc(OC)c1OC`: the GI50 in the test on 786-0 renal is greater than 100 µM; in the test with ACHN renal, greater than 100 µM; in the test on HCT-116 colon, 86.5 µM; in the test with HT29 colon it was greater than 100 µM; in the test with MCF7 breast, greater than 100 µM; in the test on OVCAR-4 ovarian it was greater than 100 µM. Further, the GI50 with OVCAR-8 ovarian, with RPMI-8226 leukemia and in the test with RXF 393 renal was greater than 100 µM in each case. Also, the TGI in the test with 786-0 renal, in the test with ACHN renal, with HCT-116 colon, in the test with HT29 colon, with MCF7 breast and with OVCAR-4 ovarian was greater than 100 µM throughout. The TGI with OVCAR-8 ovarian, with RPMI-8226 leukemia and in the test with RXF 393 renal was greater than 100 µM each time.
With `CCN1Cc2nc3sc(C)c(C)c3c(=O)n2C=C1C`, the GI50 with 786-0 renal is 16.1 µM; in the test with ACHN renal, 11.5 µM; in the test with HCC-2998 colon, 5.19 µM; in the test with HCT-116 colon, 1.72 µM; with HT29 colon, 3.9 µM; with MCF7 breast it was 3.94 µM. Besides, the GI50 with OVCAR-4 ovarian was 11.8 µM; with OVCAR-8 ovarian it was 4.83 µM; in the test with RPMI-8226 leukemia it was 2.64 µM. Also, the TGI is 66.4 µM in the test with 786-0 renal; greater than 100 µM with ACHN renal; 37.8 µM in the test with HCC-2998 colon; 4.17 µM in the test with HCT-116 colon; 15.8 µM in the test on HT29 colon; 53.3 µM with MCF7 breast. Also, the TGI was greater than 100 µM in the test with OVCAR-4 ovarian, 25.3 µM with OVCAR-8 ovarian and 10.9 µM in the test with RPMI-8226 leukemia.
Take `Cc1ccc2c(c1)S(=O)(=O)c1ccc3ccccc3c1N2`: the TGI in the test on 786-0 renal, in the test on ACHN renal, in the test on HCC-2998 colon, with HCT-116 colon, in the test on HT29 colon and with MCF7 breast was greater than 100 µM each time. Moreover, the TGI with OVCAR-4 ovarian, in the test with OVCAR-8 ovarian and in the test on RXF 393 renal was greater than 100 µM in each case.
As to `CC1OC(OC2C(OC3CCC4(C)C(CCC5(C)C4CC=C4C6CC(C)(C)CCC6(C(=O)O)CCC45C)C3(C)CO)OCC(O)C2O)C(O)C(O)C1O` (centres undefined), the TGI in the test on 786-0 renal was greater than 100 µM; with ACHN renal, 37.5 µM; in the test with HCC-2998 colon, 30.8 µM; in the test on HCT-116 colon it was greater than 100 µM; with HT29 colon it was 44.7 µM; with MCF7 breast it was 1.91 µM. Further, the TGI in the test on OVCAR-4 ovarian was determined as 30.5 µM; with OVCAR-8 ovarian, 40.1 µM; in the test with RXF 393 renal, 11.6 µM.
Take `COC1=CC(c2ccc[nH]2)=N/C1=C\c1[nH]c(C)c(C(=O)CCCCC(=O)Oc2ccc3c(c2)CCC2C3CC[C@]3(C)[C@@H](O)CC[C@@H]23)c1C` (some centres undefined): the GI50 in the test on 786-0 renal was 5.64 µM; with ACHN renal, 5.14 µM; in the test with HCC-2998 colon, greater than 100 µM; in the test on HCT-116 colon it was 3.1 µM; in the test with MCF7 breast, 0.863 µM; in the test on OVCAR-4 ovarian it was 9.44 µM. In addition, the GI50 in the test on OVCAR-8 ovarian was greater than 100 µM; in the test with RPMI-8226 leukemia, 4.11 µM; in the test on RXF 393 renal it was 25.8 µM. In addition, the TGI in the test with 786-0 renal was greater than 100 µM; with ACHN renal, greater than 100 µM; in the test with HCC-2998 colon it was greater than 100 µM; with HCT-116 colon, 13.6 µM; in the test on MCF7 breast, greater than 100 µM; in the test with OVCAR-4 ovarian, greater than 100 µM. Moreover, the TGI with OVCAR-8 ovarian, in the test on RPMI-8226 leukemia and in the test on RXF 393 renal was greater than 100 µM each time.
For the compound `COc1cc(/C=C2\C[C@H]3[C@@H]4CC=C5C[C@@H](O)CC[C@]5(C)[C@H]4CC[C@]3(C)[C@H]2O)ccc1OCCCn1ccnc1`, the GI50 was 1.23 µM with 786-0 renal; 1.28 µM in the test on ACHN renal; 8.22 µM in the test on HCC-2998 colon; 2.68 µM with HT29 colon; 2.63 µM with MCF7 breast; 2.62 µM in the test on OVCAR-8 ovarian. Moreover, the GI50 in the test with RXF 393 renal is 2.52 µM. In addition, the TGI in the test with 786-0 renal was 3.09 µM; with ACHN renal it was 3.34 µM; in the test with HCC-2998 colon it was 16.1 µM; in the test with HT29 colon it was greater than 50 µM; with MCF7 breast, 27.7 µM; in the test with OVCAR-8 ovarian, 16.1 µM. In the test on RXF 393 renal, this compound yielded a TGI of 43.4 µM.
Consider `COc1cc([N+](=O)[O-])c(OC)cc1-c1nc2sc(Cl)cn2c1/C=N/NC1=NCCN1`, for which the GI50 is 0.487 µM in the test on 786-0 renal; 1.32 µM in the test on ACHN renal; 0.597 µM in the test with HCC-2998 colon; 0.249 µM in the test on HCT-116 colon; 0.269 µM in the test on HT29 colon; 0.431 µM in the test on MCF7 breast. Besides, the TGI in the test with 786-0 renal is 1.13 µM; in the test on ACHN renal it was 2.6 µM; in the test with HCC-2998 colon, 1.22 µM; with HCT-116 colon, 0.616 µM; in the test with MCF7 breast it was greater than 100 µM.
Consider `NCC1OC(OC2C(CO)OC(OC3C(O)C(N)CC(N)C3OC3OC(CO)C(O)CC3N)C2O)C(N)C(O)C1OC1OC(CO)C(O)C(O)C1O` (centres undefined), for which the GI50 with 786-0 renal, in the test on ACHN renal, in the test on HCT-116 colon, with HT29 colon, in the test on MCF7 breast and with OVCAR-8 ovarian was greater than 50 µg/mL throughout. Moreover, the GI50 in the test with RPMI-8226 leukemia is greater than 50 µg/mL. Further, the TGI in the test on 786-0 renal, in the test with ACHN renal, in the test with HCT-116 colon, in the test with HT29 colon, in the test on MCF7 breast and with OVCAR-8 ovarian was greater than 50 µg/mL throughout. Also, the TGI with RPMI-8226 leukemia is greater than 50 µg/mL.
As to `Oc1cc2ccccc2c(-c2c(O)c(O)cc3ccccc23)c1O`, the GI50 in the test with 786-0 renal is 0.201 µM; with ACHN renal it was 0.571 µM; in the test on HCC-2998 colon it was 0.506 µM; with HCT-116 colon, 0.427 µM; with HT29 colon, 3.95 µM; in the test on MCF7 breast, 0.228 µM. Besides, the GI50 with OVCAR-4 ovarian is 2.3 µM; in the test on OVCAR-8 ovarian it was 2.16 µM; in the test on RPMI-8226 leukemia, 0.743 µM. In addition, the TGI with 786-0 renal came to 1.07 µM; with ACHN renal it was 21.1 µM; in the test with HCC-2998 colon, 2.61 µM; with HCT-116 colon, 11.9 µM; with HT29 colon, 25.3 µM; in the test on MCF7 breast, 13 µM. In addition, the TGI in the test on OVCAR-4 ovarian was 34.3 µM; in the test on OVCAR-8 ovarian, greater than 24 µM; in the test with RPMI-8226 leukemia it was greater than 28.2 µM.
